Data on four compounds can be found in US12655139B2, “Isoxazolidines as RIPK1 inhibitors and use thereof” (SANOFI, priority 2020, dated 2026).

Structures are written as SMILES. Read-outs that look alike come from different tables or passages of the source.

The conditions of series [1]: monkeys, doses ≥100 mg/kg; cited from earlier work.
For series [2], the system named is U937 cells. The following applies: Comparator table 5; data from P.A. Harris et al. J Med Chem 2019, 62, 5096; cited from earlier work.
Series [3] deals with U937 cells. Description: Cellular assay in U937 cells on cell death (necroptosis), TNFα/zVAD.fmk. The following applies: Homo sapiens, U-937, Comparator table 5; read-out: U937 IC50 (uM) Mean. It is filed as cell-based. In short, it runs like this:
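U937 cells with 100 ng/ml TNFα plus 50 μM zVAD.fmk (pre-addition suspension levels) received 10 compound concentrations (10 μM–0.26 nM or 1 μM–0.07 nM) for 18–24 h at 37 °C. Live cells were read by MTS formazan absorbance at 490 nm after 4 h. % inhibition is relative to the maximal value without TNFα/zVAD.fmk.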

Series [4] is described as follows: Pharmacokinetic studies in mice, intravenous application with non-serial sampling. The format is in vivo. As for the experimental part: Intravenous Application with Non-Serial Sampling Compound K
A solution of the respective test articles (3 mg/kg, 5 mL/kg, 0.6 mg/mL) was prepared by dissolving the solids in 7.5% N-Methyl pyrrolidon followed by addition of 60% PEG200 and 32.5% water for injection. Intravenous administration to 24 (3×8, groups per time) non-fasted male C57BL/6 mice (20-25 g) followed immediately after preparation. Terminal blood sampling (with the addition of K2-EDTA) was performed at 0.083, 0.25, 0.5, 1, 2, 4, 8 and 24 h post admin. Plasma was generated by centrifugation and deep-frozen (−20° C.). In addition, brain and liver were removed from all animals. The organs were pooled per time group, homogenized and the homogenate extracted with an acetonitrile-water mixture prior to measurement by HPLC-MS/MS. The brain/plasma ratio was determined by dividing the brain concentration through the respective value for the plasma concentration at the same sampling time.

The target in series [5] is T1, hRIPK1 (aa 1-375) fusion protein (Homo sapiens, UniProt Q13546).
T1 construct: hRIPK1 (aa 1-375) fusion protein
T1 sequence (Q13546 1-375): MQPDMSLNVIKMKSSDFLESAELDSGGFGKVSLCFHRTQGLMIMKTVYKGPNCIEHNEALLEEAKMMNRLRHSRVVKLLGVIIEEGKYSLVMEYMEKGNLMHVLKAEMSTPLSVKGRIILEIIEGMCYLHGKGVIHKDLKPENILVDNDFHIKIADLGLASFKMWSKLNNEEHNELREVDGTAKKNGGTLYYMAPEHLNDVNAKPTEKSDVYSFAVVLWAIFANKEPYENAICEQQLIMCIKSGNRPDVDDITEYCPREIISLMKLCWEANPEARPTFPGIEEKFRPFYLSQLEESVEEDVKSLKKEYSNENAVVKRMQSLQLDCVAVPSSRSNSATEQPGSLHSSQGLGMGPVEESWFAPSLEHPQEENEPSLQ
The series is described as follows: ADP-Glo kinase assay, RIPK1 autophosphorylation. The format is biochemical. The following applies: Comparator table 5. Background: In ADP-Glo the light output rises with the ADP produced.

The nature of series [6]: Intravenous application to cynomolgus monkeys, side effects and histopathology. The following applies: 1 mg/kg, i.v. It is filed as in vivo, cynomolgus monkey.
Series [7] is described as follows: Pharmacokinetic studies in mice, oral application. The format is in vivo. As to conditions: male, C57BL/6, brain / plasma; mouse, 2 h after oral application of 30 mg/kg; read-out: brain/plasma ratio. As for the experimental part:
Pharmacokinetic Studies in Mice
A suspension of the respective test articles (30 mg/kg, 10 ml/kg, 3 mg/ml) was prepared in 0.6% methyl cellulose (MC) by thorough mixing of the fine solid with the freshly made and filtered MC solution and administered to 24 non-fasted male C57BL/6 mice (20-25 g) by gavage. Terminal blood sampling (with the addition of K2-EDTA) was performed at 0.25, 0.5, 1, 2, 4, 6, 8 and 24 h post admin. Plasma was generated by centrifugation and deep-frozen (−20° C.). In addition, after 2 h, brain and liver were removed from the respective 3 mice. Additional plasma was collected from terminal blood. The organs were pooled, homogenized and the homogenate extracted with an acetonitrile-water mixture prior to measurement by HPLC-MS/MS. The brain/plasma ratio was determined at 2 h by dividing the brain concentration at 2 h through the respective value for the plasma concentration at 2 h.
Ex. 004: 21 mice were used in the study, without the 6 h sampling time. The same study design was applied.
A suspension of the respective test articles (30 mg/kg, 10 ml/kg, 3 mg/ml) was prepared in freshly prepared and filtered 0.6% methyl cellulose solution by wet-milling using Retsch MM 301 mixer mill (10 min, room temperature) and administered to 6 non-fasted male C57BL/6 mice (20-25 g) by gavage. Serial sampling of blood (with the addition of K3-EDTA) was performed at 0.25, 0.5, 1, 2, 4, 6, 8 and 24 h post admin. The blood samples were diluted (10 μl blood were added to a mixture of 90 μl 25% acetonitrile in water) and deep-frozen (−20° C.). After 2 h, 3 of the 6 animals were sacrificed and brain and liver taken off. Additional plasma was prepared from terminal blood. The organs were homogenized and the homogenate extracted with an acetonitrile-water mixture prior to measurement by HPLC-MS/MS. The brain/plasma ratio was determined at 2 h by dividing the brain concentration at 2 h through the respective value for the plasma concentration at 2 h.

Turning to `CN1C(=O)[C@@H](NC(=O)c2nnc(Cc3ccccc3)[nH]2)COc2ccccc21` [GSK2982772], the central side effects result in series [1] was “irregular gait and uncoordinated movement”.
What is called IC50 is the point on the concentration scale where inhibition reaches its midpoint. Consider `CC(C)(C)C(=O)N1N=CC[C@H]1c1cc(F)cc(F)c1` [H], for which the IC50 in series [2] is 0.006 µM.
For `COc1cc(N2CCC(C(=O)N3OCC[C@H]3c3cc(F)cc(F)c3)CC2)ncn1` [K, reference compound], the IC50 in series [3] is 0.01 µM; in series [5], 18 nM. Moreover, the “Mouse PK brain/blood ratio” value in series [4] (15 min, i.v. 3 mg/kg) is 2.1 (15 min i.v. 3 mg/kg).
In the case of `COc1cc(N2CCC(C(=O)N3OCC[C@H]3c3cc(F)cc(F)c3)CC2)ncn1` [comparator compound K, [1-(6-Methoxypyrimidin-4-yl)-4-piperidyl]-[(3S)-3-(3,5-difluorophenyl)isoxazolidin-2-yl]methanone], in series [6], the histopathological examination entry was “bilateral and symmetrical lesions of brain necrosis”; the side effects result was “severe side effects”. Moreover, the Kp at 15 min in series [4] (male, C57BL/6, brain / plasma, iv, mouse, 15 min after i.v. application of 3 mg/kg, read-out: brain/blood ratio) came out at 2.1. Moreover, the concentration at 15 min in series [4] (male, C57BL/6, brain, iv, mouse, 15 min after i.v. application of 3 mg/kg, read-out: brain levels) was 1580 ng/mL. Moreover, the Kp at 2 h in series [7] was determined as 1.6.
